MIC data for five compounds are collected here from DBAASP.

In brackets after ≈: the same amount, converted by molar mass.

Common to all, as to assay: ≥ marks a high value that may be exact or a test limit, other limits are often not marked, values filed in µg/mL are converted to µM
Experiment [1] relates to Pseudomonas aeruginosa CICC 21625.
The subject of experiment [2] is Pseudomonas aeruginosa CICC 11431.
The test system of experiment [3] is Pseudomonas aeruginosa CICC 11411.
In experiment [4] the test system is Pseudomonas aeruginosa ATCC 27853.
Experiment [5] deals with Staphylococcus aureus ATCC 29213.
The test system of experiment [6] is Escherichia coli ATCC 25922.
Experiment [7] deals with Pseudomonas aeruginosa CICC 11421.
Experiment [8] deals with Pseudomonas aeruginosa 21328.
Experiment [9] relates to Pseudomonas aeruginosa CICC 10419.
The subject of experiment [10] is Pseudomonas aeruginosa 25349.
Experiment [11] concerns Pseudomonas aeruginosa CICC 21630.
Experiment [12] concerns Escherichia coli ATCC 35218.
In experiment [13] the test system is Salmonella enterica subsp. enterica serovar Abony NCTC 6017.
The subject of experiment [14] is Staphylococcus saprophyticus MTCC 6155.
The subject of experiment [15] is Staphylococcus aureus ATCC 33592.
Experiment [16] relates to Micrococcus luteus MTCC 166.
Experiment [17] relates to Escherichia coli ATCC 11775.
Experiment [18] relates to Klebsiella pneumoniae ATCC 13883.
Experiment [19] concerns Salmonella enterica subsp. enterica serovar Typhimurium ATCC 14028.
Experiment [20] relates to Bacillus subtilis MTCC 121.
The test system of experiment [21] is Klebsiella pneumoniae ATCC 700603.
Experiment [22] deals with Escherichia coli ML-35p.
In experiment [23] the test system is Staphylococcus epidermidis MTCC 435.
Experiment [24] has as its system Salmonella enterica subsp. enterica serovar Typhi Vi+.
Experiment [25] has as its system Staphylococcus aureus SA113.
Experiment [26] deals with Staphylococcus aureus Newman.
Experiment [27] has as its system Escherichia coli NCIMB 11843.
Experiment [28] concerns Salmonella enterica subsp. enterica serovar Typhimurium DT104.
Experiment [29] deals with Cronobacter sakazakii DSM 4485.
Experiment [30] relates to Escherichia coli O111.
For experiment [31], the system named is Cronobacter muytjensii ATCC 51329.
The subject of experiment [32] is Cronobacter sakazakii ATCC BAA-894.
The subject of experiment [33] is Pseudomonas fluorescens NCIMB 9046.
Experiment [34] has as its system Salmonella enterica subsp. enterica serovar Typhimurium LT2.
Experiment [35] concerns Staphylococcus aureus NCTC 7428.
Experiment [36] concerns Klebsiella pneumoniae NCIMB 13218.
Experiment [37] concerns Staphylococcus aureus NCTC 8325-4.
Experiment [38] concerns Escherichia coli O157:H7.
The subject of experiment [39] is Staphylococcus aureus RF122.
Experiment [40] relates to Staphylococcus aureus RN4220.
Experiment [41] relates to Cronobacter sakazakii DPC 6440.
In experiment [42] the test system is Staphylococcus aureus ATCC 25923.
Experiment [43] deals with Bacillus cereus ATCC 11778.
Experiment [44] relates to Staphylococcus aureus ATCC 43300.
Experiment [45] has as its system Pseudomonas aeruginosa ATCC 9027.
For experiment [46], the system named is Listeria monocytogenes ATCC BAA-751.
Experiment [47] concerns Staphylococcus aureus NBRC 13276.
The test system of experiment [48] is Pseudomonas aeruginosa NBRC 13275.
In experiment [49] the test system is Escherichia coli DH5alpha.

By MIC is commonly meant the least concentration at which growth counts as inhibited. A low value points to inhibition by little substance.

In the case of `CC(C)C[C@H](NC(=O)[C@H](CCCN=C(N)N)NC(=O)[C@H](CCCN=C(N)N)NC(=O)[C@H](CC(C)C)NC(=O)[C@H](Cc1c[nH]c2ccccc12)NC(=O)[C@H](CCCN=C(N)N)NC(=O)[C@H](CCCN=C(N)N)NC(=O)[C@H](CCCN=C(N)N)NC(=O)[C@H](CC(C)C)NC(=O)[C@H](CCCN=C(N)N)NC(=O)[C@H](CCCN=C(N)N)NC(=O)[C@@H](N)CC(C)C)C(=O)N[C@@H](CCCN=C(N)N)C(=O)N[C@@H](CCCN=C(N)N)C(=O)N[C@@H](CCCN=C(N)N)C(N)=O` [LRRLRRRWLRRLRRR], the MIC in [1] is 28.8 µM (≈ 64 µg/mL); in experiment [2], 28.8 µM (≈ 64 µg/mL); in experiment [3] it was ≥ 57.7 µM; in [4], 14.4 µM (≈ 32 µg/mL); in [5] it was 28.8 µM (≈ 64 µg/mL); in experiment [6], > 57.7 µM. The MIC in experiment [7] is ≥ 115 µM; in experiment [8], ≥ 57.7 µM; in [9] it was ≥ 115 µM; in experiment [10], 20.4 µM (≈ 45.2 µg/mL); in experiment [11], 14.4 µM (≈ 32 µg/mL).
`CC[C@H](C)[C@H](N)C(=O)N[C@@H](CC(C)C)C(=O)N1CCC[C@H]1C(=O)N[C@@H](Cc1c[nH]c2ccccc12)C(=O)N[C@@H](CCCCN)C(=O)N[C@@H](Cc1c[nH]c2ccccc12)C(=O)N[C@@H](CCCCN)C(=O)N[C@@H](Cc1c[nH]c2ccccc12)C(=O)N[C@H](C(=O)N1CCC[C@H]1C(=O)N[C@@H](Cc1c[nH]c2ccccc12)C(=O)N[C@@H](CCCN=C(N)N)C(=O)N[C@@H](CCCN=C(N)N)C(N)=O)[C@@H](C)O` [ILPWKWKWTPWRR]: the minimum inhibitory concentration (MIC) in experiment [12] amounted to 5 µM (≈ 9.26 µg/mL); in experiment [13], 7 µM (≈ 13 µg/mL); in experiment [4], 4 µM (≈ 7.41 µg/mL); in experiment [14], 3 µM (≈ 5.56 µg/mL); in [15], 3 µM (≈ 5.56 µg/mL); in [16], 2.5 µM (≈ 4.63 µg/mL). The MIC in experiment [17] was determined as 4 µM (≈ 7.41 µg/mL); in experiment [18] it was 3 µM (≈ 5.56 µg/mL); in experiment [19], 7 µM (≈ 13 µg/mL); in experiment [20], 3 µM (≈ 5.56 µg/mL); in experiment [21], 5 µM (≈ 9.26 µg/mL); in experiment [22] it was 4 µM (≈ 7.41 µg/mL). Also, the minimum inhibitory concentration (MIC) is 4 µM (≈ 7.41 µg/mL) in experiment [23] and 2 µM (≈ 3.7 µg/mL) in experiment [24].
For the compound `CC(C)C[C@H](NC(=O)[C@H](CC(C)C)NC(=O)[C@H](CC(N)=O)NC(=O)[C@H](CCC(=O)O)NC(=O)[C@H](CC(N)=O)NC(=O)[C@H](CC(C)C)NC(=O)[C@@H](N)C(C)C)C(=O)N[C@@H](CCCN=C(N)N)C(=O)O` [VLNENLLR], the minimum inhibitory concentration (MIC) in experiment [25] was ≥ 1250 µM; in experiment [4], 64 µM (≈ 62.1 µg/mL); in experiment [26], ≥ 1250 µM; in [27], ≥ 1250 µM; in experiment [28], ≥ 2060 µM; in experiment [29], ≥ 625 µM. Also, the minimum inhibitory concentration (MIC) is ≥ 2060 µM in experiment [30]; ≥ 625 µM in experiment [31]; ≥ 625 µM in experiment [32]; ≥ 1250 µM in experiment [33]; ≥ 1250 µM in [34]; ≥ 2060 µM in experiment [35]. Also, the MIC in experiment [36] was ≥ 1250 µM; in experiment [37], ≥ 1250 µM; in experiment [38], ≥ 2060 µM; in [39], ≥ 1250 µM; in experiment [40] it was ≥ 1250 µM; in experiment [41] it was ≥ 1250 µM.
Consider `CC[C@H](C)[C@H](NC(=O)CNC(=O)[C@H](CCCCN)NC(=O)[C@@H](NC(=O)[C@H](CC(C)C)NC(=O)[C@H](CCCCN)NC(=O)CNC(=O)[C@H](CC(C)C)NC(=O)CNC(=O)[C@H](CO)NC(=O)[C@H](CCCCN)NC(=O)[C@H](Cc1ccccc1)NC(=O)[C@@H](NC(=O)[C@H](CCCN=C(N)N)NC(=O)[C@H](CCCCN)NC(=O)[C@H](CC(C)C)NC(=O)CN)[C@@H](C)CC)C(C)C)C(=O)N[C@@H](CO)C(=O)N[C@@H](C)C(=O)N[C@@H](Cc1cnc[nH]1)C(=O)N[C@H](C(=O)N[C@@H](C)C(=O)N[C@@H](CO)C(=O)O)C(C)C` [GLKRIFKSGLGKLVKGISAHVAS], for which the MIC is 62.5 µM (≈ 148 µg/mL) in experiment [42]; 250 µM (≈ 592 µg/mL) in experiment [5]; 62.5 µM (≈ 148 µg/mL) in experiment [6]; ≥ 125 µM in [43]; 125 µM (≈ 296 µg/mL) in experiment [19]; 250 µM (≈ 592 µg/mL) in experiment [44]. Besides, the minimal inhibitory concentration (MIC) was 250 µM (≈ 592 µg/mL) in [45] and ≥ 62.5 µM in experiment [46].
As to `CC(=O)N[C@@H](CCCCN)C(=O)N[C@@H](Cc1ccccc1)C(=O)N[C@@H](CC(C)C)C(=O)N[C@@H](Cc1cnc[nH]1)C(=O)N[C@@H](CO)C(=O)N[C@@H](C)C(=O)N[C@@H](CCCCN)C(=O)N[C@@H](CCCCN)C(=O)N[C@@H](Cc1ccccc1)C(N)=O` [KFLHSAKKF], the MIC in experiment [47] is ≥ 400 µM; in experiment [48], ≥ 200 µM; in experiment [49], ≥ 200 µM.
